Legend:
[1] = system: 103Y-Gal4/+;UAS-CTG(480)/+ flies; experiment: Lethality phenotype in pupae caused by expression of 480 CTG under 103Y-Gal4 (females born); type: in vivo, Drosophila; conditions: administered to larvae in the food; compared with p10
Method: The 120 vials that make up the chemical library were individually assayed on the lethality phenotype in pupae caused by the expression of 480 CTG under the control of 103Y-Gal4 at a concentration of 80 μM. […] Thus, for positions O1, O2, O3, O4, O5 and O6 of the hexapeptide, a total of six, three, six, four, two and seven active amino acids were obtained, respectively (FIG. 2A). In order to perform the deconvolution, 10 of these 28 amino acids were selected, on the basis of their degree of activity in the biological assay (FIG. 2A). Finally, of the possible combinations, 16 sequences were selected to perform the synthesis of the defined hexapeptides (FIG. 2B). The selection of these 16 peptides was based on redundancy criteria between the physical and chemical properties of active amino acids in similar positions.
At 250 μM, the activity of the peptide decreased, possibly due to a toxic effect of the peptide at higher concentrations.
In order to determine the contribution of each of the p10 residues to their activity on CTG(480), an alanine scanning experiment was performed. These experiments are based on substituting every amino acid of the peptide with alanine and keeping the rest. Alanine is a small amino acid and, in general, not very active; this is why it is used for this type of studies. Since each alanine substitution examines the contribution of an individual amino acid, this experiment makes it possible, on the one hand, to evaluate whether p10 is susceptible to optimisation (in the event that a substitution increases the efficacy of the molecule), or to determine which amino acids are important for its function (in the event that a substitution decreases the activity thereof). The sequence of p10 allows for 5 substitutions; for this reason, 5 new hexapeptides were synthesised which were assayed in relation to the lethality phenotype in 103Y-Gal4; UAS-CTG(480)/+ flies and commercial food.

[2] = system: AAG, CGG, CCUG and CAG repeats; experiment: Tryptophan extinction assay with repeats different from CUG; type: binding; conditions: RNA probe 5, 7.5, 10 μM (ppyawa: 10 μM)
Method: This figure illustrates an experiment which tested p10 and its capacity to bind to repeats different from CUG repeats, but which are also involved in diseases where the toxicity of RNAs with repeat expansions has been described. The tryptophan extinction assay was used, using (1) p10+AAG, CGG, CCUG and CAG at different RNA concentrations (5 μM, 7.5 μM and 10 μM).
On the other hand, as represented in FIG. 30, the peptides of the invention (particularly p10) have different binding affinities to hairpin loops formed by repeats other than CUG repeats, such as, for example AAG, CGG, CCUG and CAG. In this example, we tested p10 and its capacity to bind to repeats different from CUG repeats, but which are also involved in diseases where the toxicity of RNAs with long repeats has been described. […] Three assay points were used (3 different probe concentrations), with two measurements in each. The results were normalised to the signal offered by p10 alone. […] A single assay point is shown (probe at 10 μM). The results are shown non-normalised in order to be able to include the initial value of the peptides tested.

CUG60 RNA = experiment: Circular dichroism of CUG60 RNA; type: binding; conditions: RNA 1 μM, p10 0.1-20 μM, MblZF 1 and 1.5 μM, ppyawa 0.5 and 1 μM, payawe 1 μM
Method: However, this effect was not reverted when the RNA was incubated jointly with MblZF and p10, regardless of the order of addition (C).
In order to study possible changes in the secondary structure of RNA induced by p10, in the first place we performed a circular dichroism (CD) experiment, using an RNA with unlabelled CUG repeats (CUG60). The circular dichroism of nucleic acids is caused by the stacking of the bases that make up the sequence thereof. Consequently, when a molecule binds to RNA, affecting the structure thereof, a change is detected in its CD spectrum. […] When we incubated the RNA with increasing concentrations of the peptide of SEQ ID NO: 10 (0.1 μM, 0.5 μM, 1 μM, 10 μM and 20 μM), a similar effect was observed (FIG. 27B). During the readings, the RNA was kept in the cuvette inside the dichrograph at 10° C. Throughout the 3 hours of each experiment, it was possible for the RNA to have been degraded; this would explain the decrease in the intensity of the signal observed. In order to rule out this possibility, the CD spectrum of CUG60 RNA was measured at times 0 and 3 h, having kept the CUG60 RNA at 10° C. at all times.

2-AP-(CUG)23 RNA = experiment: 2-aminopurine fluorescence assay (hairpin opening); type: biochemical; conditions: peptide 100 μM, RNA 1 μM (1:100)
Method in brief: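 2-AP-labelled (CUG)23 RNA (1 μM) was incubated with peptides at 100 μM (RNA:peptide 1:100), or with MblZF at 0.1–5 μM. 2-aminopurine emission at 375 nm is expressed relative to free RNA, with higher fluorescence indicating a shift from hairpin to single-stranded.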

FAM-(CUG)23 RNA = experiment: Fluorescence gel retardation assay with FAM-(CUG)23; type: binding; conditions: peptide 2.5 mM, RNA 60 nM
Source text: The changes on the RNA caused by p10 in the FP assay are small, probably due to the low molecular weight of the molecule (less than 900 Da). For this reason, it was decided to supplement the study with gel retardation experiments. These assays are based on the differences in electrophoretic mobility between stable protein-nucleic acid complexes and their components separately. Since the FAM-(CUG)23 RNA was available, it was decided to prepare a fluorescence gel retardation assay. After determining the optimal quantity of RNA for detection (60 nM; FIG. 21A), the binding between the latter and MblZF was studied. Said binding caused both a decrease in the intensity of the band corresponding to the free RNA in the gel and the appearance of a signal in the interior of the gel wells (bound RNA).
In order to determine whether p10 could bind to CUG RNA molecules, it was decided to perform a similar gel retardation experiment between the peptide and FAM-(CUG)23. p10 bound to the RNA, with part of the complex being retained in the well, as described for MblZF. […] This affinity decreased upon decreasing the size of the repeats (FAM-(CUG)4, FIG. 24C). […] This could be due either to a synergic effect between the protein and the peptide or to an additive effect if both should bind to different RNA sites.
In order to study the specificity of the binding observed between p10 and the CUG repeats, two experiments were performed. In the first place, the five hexapeptides generated during the alanine scanning were assayed. […] In the second place, we studied the effect of p10 on other RNA and DNA sequences, both double-stranded and single-stranded, fluorescently labelled with carboxyfluorescein (FAM) (FIG. 25C).

Question: With ppyawa as the substance, how does the “activity on lethality phenotype (number of females), alanine scanning” value [1] read?
Answer: loss of activity

Question: And the “change of tryptophan fluorescence intensity in the presence of repeats” value [2]?
Answer: increase in intensity

Question: And the “change of circular dichroism spectrum of CUG60” value (CUG60 RNA)?
Answer: did not occur

Question: What about the “change of circular dichroism spectrum of CUG60” value (CUG60 RNA; listed as p29.1) of the same substance?
Answer: did not change the RNA spectrum

Question: And the “increase in the fluorescence emission of 2-AP-(CUG)23” value (2-AP-(CUG)23 RNA)?
Answer: None of these peptides caused changes

Question: And the “significant binding to FAM-(CUG)23 RNA” value (FAM-(CUG)23 RNA)?
Answer: None

Reference: US20130143825A1, “COMPOUNDS FOR USE IN THE TREATMENT OF DISEASES BASED ON THE EXPRESSION OF TOXIC TRANSCRIPTS” (UNIVERSITAT DE VALENCIA, priority 2010, published 2013)
